How the values were obtained:
[1] = test system: Babesia bovis, Babesia canis; assay: In vitro antibabesia activity, (3H) hypoxanthine incorporation; format: cell-based; conditions: score from ED50 of (3H) hypoxanthine incorporation
From the text: The screening process for antimalaria activity, based on parasite incorporation of (^3 H) hypoxanthine was used to test the antimetabolic activity of such components against Babesia bovis, Babesia canis. A tight relationship was found between the rate of (^3 H) hypoxanthine incorporation using standard measurements and the percentage of parasitized cells determined by microscopy. […] The score was ++ for the same activity at a concentration of 0.01 to 0.1 micromoles and finally + for a concentration under or equal to 1 micromole.

[2] = Therapeutic index in infected mice (antimalaria activity compared with semi-chronic toxicity); format: in vivo; conditions: mouse, in vivo, i.p. or s.c., twice a day for four days, ratio of activity over toxicity (LD50)
Method: In order to evaluate the therapeutic index of the different products, the activity of these products was tested in vivo and compared with […] toxicity in animals. This activity was measured using the test described by PETERS W. (Chemotherapy and Drug resistance in Malaria, 1970). A compound was administered for four consecutive days to mice previously infected with Plasmodium vinckei, petterei or chabaudi. The said compound was dissolved in a 0.9% NaCl solution. The preparations were thus administered intraperitoneally or subcutaneously in male Swiss mice infected by intravenous injection of Plasmodium petterei or Plasmodium chadaudi (10^6 infected cells). The compound was administered twice a day for four consecutive days, the first injection being performed two hours after the infestation and the second, 10 hours later. The parasitemia was determined on blood smears the day after the end of treatment. Toxicity was measured in vivo following the same schedule, the animals having received, under the same administration conditions as above, two injections per day for four days (semi-chronic toxicity). The results are expressed in lethal dose 50 (LD50), i.e. the dose causing death in 50% of the animals.
The results of these trials are summarized in Table I, below, and expressed as therapeutic index, or the ratio of activity over toxicity measured under the identical conditions described above.

SMILES | Antibabesia activity at 10 millimoles [1] | selectivity ratio [2]
CCC[N+](C)(CC)CCCCCCCCCCCCCC[N+](C)(CC)CCC (stereo not drawn) [EXAMPLE 1, N,N'-dimethyl-N,N'-diethyl-N,N'-dipropyl-1,14 tetradecanediaminium, dibromide] | ++ (the same activity at a concentration of 0.01 to 0.1 micromoles) | 50
CCC[N+](C)(CC)CCCCCCCCCCCCCCC[N+](C)(CC)CCC.[Br-].[Br-] (stereo not drawn) [EXAMPLE 2, N,N'-dimethyl-N,N'-diethyl-N,N'-dipropyl-1,15-pentadecanediaminium dibromide] | + (a concentration under or equal to 1 micromole) | 42
CCC[N+](C)(CC)CCCCCCCCCCCCCCCC[N+](C)(CC)CCC.[Br-].[Br-] (stereo not drawn) [EXAMPLE 3, N,N'-dimethyl-N,N'-diethyl-N,N'-dipropyl-1,16-hexadecanediaminium dibromide] |  | 15
CCC[N+](C)(CC)CCCCCCCCCCCCCCCCC[N+](C)(CC)CCC.[Br-].[Br-] (stereo not drawn) [EXAMPLE 4, N,N'-dimethyl-N,N'-diethyl-N,N'-dipropyl-1,17-heptadecanediaminium dibromide] | ++ (the same activity at a concentration of 0.01 to 0.1 micromoles) | 17
CCC[N+](C)(CC)CCCCCCCCCCCCCCCCCC[N+](C)(CC)CCC.[Br-].[Br-] (stereo not drawn) [EXAMPLE 5, N,N'-dimethyl-N,N'-diethyl-N,N'-dipropyl-1,18-octadecanediaminium dibromide] | +++ (a 50% inhibition of (^3 H) hypoxanthine incorporation (ED50), these molecules having a concentration less than or equal to 0.01 micromoles) | 12
CCC[N+](C)(CC)CCCCCCCCCCCCCCCCCCCC[N+](C)(CC)CCC.[Br-].[Br-] (stereo not drawn) [EXAMPLE 6, N,N'-dimethyl-N,N'-diethyl-N,N'-dipropyl-1,20-eicosanediaminium dibromide] | ++ (the same activity at a concentration of 0.01 to 0.1 micromoles) | 15
CCC[N+](C)(CC)CCCCCCCCCCCCCCCCCCCCCC[N+](C)(CC)CCC (stereo not drawn) [EXAMPLE 7, N,N'-dimethyl-N,N'-diethyl-N N'-dipropyl-1,22-cosanediaminium dibromide] | ++ (the same activity at a concentration of 0.01 to 0.1 micromoles) | 35
CCC[N+](CCC)(CCC)CCCCCCCCCCCCCC[N+](CCC)(CCC)CCC.[Br-].[Br-] [EXAMPLE 8, N,N,N,N',N',N'-hexapropyl-1,14-tetradecanediaminium dibromide] | + (a concentration under or equal to 1 micromole) | 20
CCC[N+](CCC)(CCC)CCCCCCCCCCCCCCCCCCCC[N+](CCC)(CCC)CCC.[Br-].[Br-] [EXAMPLE 10, N,N,N,N', N',N'-hexapropyl-1,20-eicosanediaminium dibromide] | + (a concentration under or equal to 1 micromole) | 14
CCC[N+](CCC)(CCC)CCCCCCCCCCCCCCCCCCCCCCCC[N+](CCC)(CCC)CCC.[Br-].[Br-] [EXAMPLE 11, N,N,N,N',N',N'-hexapropyl-1,24-tetracosanediaminium dibromide] | + (a concentration under or equal to 1 micromole) | 28
CC[N+](C)(CC)CCCCCCCCCCCCCCCC[N+](C)(CC)CC [EXAMPLE 13, N,N'-dimethyl-,N,N,N',N'-tetraethyl-1,16-hexadecanediaminium dibromide] | +++ (a 50% inhibition of (^3 H) hypoxanthine incorporation (ED50), these molecules having a concentration less than or equal to 0.01 micromoles) | 6
CC[N+](C)(CC)CCCCCCCCCCCCCCCCCC[N+](C)(CC)CC [EXAMPLE 14, N,N'-dimethyl-,N,N,N',N'-tetraethyl-1,18-octadecanediaminium dibromide] | +++ (a 50% inhibition of (^3 H) hypoxanthine incorporation (ED50), these molecules having a concentration less than or equal to 0.01 micromoles) | 14
CC[N+](C)(CC)CCCCCCCCCCCCCCCCCCCCC[N+](C)(CC)CC [EXAMPLE 15, N,N'-dimethyl-,N,N,N',N'-tetraethyl-1,21-heneicosanediaminium dibromide] | +++ (a 50% inhibition of (^3 H) hypoxanthine incorporation (ED50), these molecules having a concentration less than or equal to 0.01 micromoles) | 12
C[N+]1(CCCCCCCCCCCCCC[N+]2(C)CCCC2)CCCC1 [EXAMPLE 16, 1,1'-(1,14-tetradecanediyl)bis(1-methylpyrrolidium) dibromide] | +++ (a 50% inhibition of (^3 H) hypoxanthine incorporation (ED50), these molecules having a concentration less than or equal to 0.01 micromoles) | 8
C[N+]1(CCCCCCCCCCCCCCCC[N+]2(C)CCCC2)CCCC1 [EXAMPLE 17, 1,1'-(1,16-hexadecanediyl)bis(1-methylpyrrolidium) dibromide] | +++ (a 50% inhibition of (^3 H) hypoxanthine incorporation (ED50), these molecules having a concentration less than or equal to 0.01 micromoles) | 7
C[N+]1(CCCCCCCCCCCCCCCCCCCCCC[N+]2(C)CCCC2CO)CCCC1CO (stereo not drawn) [EXAMPLE 19, 1,1'-(1,22-docosanediyl)bis(2-hydroxymethl-1-methylpyrrolidium) dibromide] | + (a concentration under or equal to 1 micromole) | 40
C[N+]1(CCCCCCCCCCCCCCCC[N+]2(C)CCOCC2)CCOCC1 [EXAMPLE 21, 1,1'-(1,16-hexadecanediyl)bis(1-methylmorphofinium) dibromide] | +++ (a 50% inhibition of (^3 H) hypoxanthine incorporation (ED50), these molecules having a concentration less than or equal to 0.01 micromoles) | 25
CCCCCCCCCCCC[N+](C)(C)CCCCCCCCCCCCCCCC[N+](C)(C)CCCCCCCCCCCC.[Br-].[Br-] [EXAMPLE 22, N,N'-didodecyl-N,N,N',N'-tetramethyl-1,16-hexadecanediaminium dibromide] | ++ (the same activity at a concentration of 0.01 to 0.1 micromoles) | 20
CCCCCCCCCCCC[N+](C)(C)CCCCCCCCCCCCCCCCCC[N+](C)(C)CCCCCCCCCCCC [EXAMPLE 23] | + (a concentration under or equal to 1 micromole) | 35
C#CC[N+](C)(C)CCCCCCCCCCCCCC[N+](C)(C)CC#C.[Br-].[Br-] [EXAMPLE 24, N,N'-di(2-propynyl)-N,N,N',N'-tetramethyl-1,14-tetradecandiaminium dibromide] | ++ (the same activity at a concentration of 0.01 to 0.1 micromoles) | 12
C=CC[N+](C)(C)CCCCCCCCCCCCCC[N+](C)(C)CC=C.[Br-].[Br-] [EXAMPLE 25, N,N'-di(2-propenyl)-N,N,N',N'-tetramethyl-1,14-tetradecanediaminium dibromide] | +++ (a 50% inhibition of (^3 H) hypoxanthine incorporation (ED50), these molecules having a concentration less than or equal to 0.01 micromoles) | 15
C#CCC[N+](C)(C)CCCCCCCCCCCCCC[N+](C)(C)CCC#C.[Br-].[Br-] [EXAMPLE 26, N,N'-di(3-butynyl)-N,N,N',N'-tetramethyl-1,14-tetradecanediaminium dibromide] | ++ (the same activity at a concentration of 0.01 to 0.1 micromoles) | 45
CCC[N+](CCC)(CCO)CCCCCCCCCCCCCC[N+](CCC)(CCC)CCO.[Br-].[Br-] [EXAMPLE 27, N,N'-di(2-hydroxyethyl)-N,N,N',N'-tetrapropyl-1,14-tetradecanediaminium dibromide] | ++ (the same activity at a concentration of 0.01 to 0.1 micromoles) | 15
CCC[N+](CCC)(CCCCCCCCCCCCCC[N+](CCC)(CCC)CCOCC)CCOCC.[Br-].[Br-] [EXAMPLE 28, N,N'-di(2-ethoxyethyl)-N,N,N',N'-tetrapropyl-1,14-tetradecanediaminium dibromide] | +++ (a 50% inhibition of (^3 H) hypoxanthine incorporation (ED50), these molecules having a concentration less than or equal to 0.01 micromoles) | 40
CCC[N+](CCC)(CCO)CCCCCCCCCCCCCCCC[N+](CCC)(CCC)CCO.[Br-].[Br-] [EXAMPLE 29, N,N'-di-(2-hydroxyethyl)-N,N,N',N'-tetrapropyl-1,16 hexadecane diaminium dibromide] | ++ (the same activity at a concentration of 0.01 to 0.1 micromoles) | 12
CCC[N+](CCC)(CCO)CCCCCCCCCCCCCCCCCCCC[N+](CCC)(CCC)CCO.[Br-].[Br-] [EXAMPLE 30, N,N'-di(2-hydroxyethyl)-N,N,N',N'-tetrapropyl-1,20-eicosanediaminium dibromide] | +++ (a 50% inhibition of (^3 H) hypoxanthine incorporation (ED50), these molecules having a concentration less than or equal to 0.01 micromoles) | 55

Source: patent US6096788A, “Antimalaria and antibabesiosis agents and pharmaceutical compositions containing such agents” (priority 1996, dated 2000)
